The values below come from patent US12344610B2, “APOL1 inhibitors and methods of use” (Maze Therapeutics, Inc., priority 2022, dated 2025).

Each structure is given as a SMILES string.

This experiment has as its target T1, APOL1 G2 (Homo sapiens, UniProt O14791, DEL388-389).
T1 construct: expressed in transfected cells; host or cells: HEK293 T-REx clonal line stably expressing GCaMP6f (HEK T-REx/GCaMP6f/APOL1 G2 K6.3), doxycycline induced
T1 sequence (O14791 with tags, fused parts or gaps DEL388-389): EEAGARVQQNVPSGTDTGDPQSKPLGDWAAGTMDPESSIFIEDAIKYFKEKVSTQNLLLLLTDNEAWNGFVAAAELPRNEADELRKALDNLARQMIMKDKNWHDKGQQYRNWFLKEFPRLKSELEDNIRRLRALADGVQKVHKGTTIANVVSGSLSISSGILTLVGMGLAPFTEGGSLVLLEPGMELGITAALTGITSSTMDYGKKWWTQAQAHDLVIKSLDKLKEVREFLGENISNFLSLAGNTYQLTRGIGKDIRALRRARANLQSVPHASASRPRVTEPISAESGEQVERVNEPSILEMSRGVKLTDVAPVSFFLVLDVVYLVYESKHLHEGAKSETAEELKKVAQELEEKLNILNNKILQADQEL
Nature of the experiment: APOL1-mediated calcium transport (calcium influx) assay, HEK T-REx/GCaMP6f/APOL1 G2 K6.3 cells, FLIPR TETRA. Particulars: prevention of calcium influx; geometric mean of at least 2 assay runs; † = average of a technical replicate from a single assay run. The format is cell-based. The method in brief: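 A HEK293 T-REx clone stably expressing GCaMP6f had APOL1 G2 induced with doxycycline (20 ng/mL solution added) for 6 h. Cells were then washed into Ca2+-free Tyrode's buffer (pH 7.4) and preincubated with compounds (duplicate 8-point) for 10 min at room temperature. Ca2+ injection to 5 mM final produced FLIPR GCaMP fluorescence, giving AC50 for influx inhibition (geometric mean, ≥2 runs).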
Regarding `O=C1CCc2cc(OCCN3CCC4(CC3)C(=O)Nc3ccc(Cl)cc34)ccc2N1` [Compound 82, 5-chloro-1′-{2-[(2-oxo-1,2,3,4-tetrahydroquinolin-6-yl)oxy]ethyl}-1,2-dihydrospiro[indole-3,4′-piperidin]-2-one], the AC50 is 1050 nM. The result for `CS(=O)(=O)C1(c2c(F)cc(OCCN3CCC4(CC3)C(=O)Nc3ccc(C#N)cc34)cc2F)COC1` [Compound 84, 1′-{2-[3,5-difluoro-4-(3-methanesulfonyloxetan-3-yl)phenoxy]ethyl}-2-oxo-1,2-dihydrospiro[indole-3,4′-piperidine]-5-carbonitrile] reads 1450 nM; that for `O=C1Nc2ccc(Cl)cc2C12CCN(CCOc1ccc3c(cnn3[C@H]3C[C@@H](O)C3)c1)CC2` [Compound 85, 5-chloro-1′-[2-({1-[(cis)-3-hydroxycyclobutyl]-1H-indazol-5-yl}oxy)ethyl]-1,2-dihydrospiro[indole-3,4′-piperidin]-2-one], 564 nM. With `O=C1Nc2ccc(Cl)cc2C12CCN(CCOc1ccc3c(cnn3[C@H]3C[C@H](O)C3)c1)CC2` [Compound 86, 5-chloro-1′-[2-({1-[(trans)-3-hydroxycyclobutyl]-1H-indazol-5-yl}oxy)ethyl]-1,2-dihydrospiro[indole-3,4′-piperidin]-2-one], the half-maximal activity concentration (AC50) turned out to be 539 nM. As to `O=C1Nc2ccc(Cl)cc2C12CCN(CCOc1ccc3[nH]ncc3c1)CC2` [Compound 87, 5-chloro-1′-[2-(2H-indazol-5-yloxy)ethyl]-1,2-dihydrospiro[indole-3,4′-piperidin]-2-one], the AC50 turned out to be 375 nM. The result for `Cn1c(=O)[nH]c2cc(OCCN3CCC4(CC3)C(=O)Nc3ccc(Cl)cc34)ccc21` [Compound 88, 5-chloro-1′-{2-[(1-methyl-2-oxo-2,3-dihydro-1H-1,3-benzodiazol-5-yl)oxy]ethyl}-1,2-dihydrospiro[indole-3,4′-piperidin]-2-one] reads 698 nM; that for `CS(=O)(=O)c1c(F)cc(OCCN2CCC3(CC2)C(=O)Nc2ccc(Cl)cc23)cc1F` [Compound 89, 5-chloro-1′-[2-(3,5-difluoro-4-methanesulfonylphenoxy)ethyl]-1,2-dihydrospiro[indole-3,4′-piperidin]-2-one], 463 nM.

As for `CS(=O)(=O)c1c(F)cc(OCCN2CCC3(CC2)C(=O)Nc2ccc(C#N)cc23)cc1F` [Compound 90, 1′-[2-(3,5-difluoro-4-methanesulfonylphenoxy)ethyl]-2-oxo-1,2-dihydrospiro[indole-3,4′-piperidine]-5-carbonitrile], the AC50 worked out at 973 nM.

`COC(=O)C1(S(=O)(=O)c2ccc(OCCN3CCC4(CC3)C(=O)Nc3ccc(Cl)cc34)cc2)CC1` [Compound 91, methyl 1-[4-(2-{5-chloro-2-oxo-1,2-dihydrospiro[indole-3,4′-piperidin]-1′-yl}ethoxy)benzenesulfonyl]cyclopropane-1-carboxylate]: the AC50 worked out at 739 nM. As for `CC1(S(=O)(=O)c2ccc(OCCN3CCC4(CC3)C(=O)Nc3ccc(Cl)cc34)cc2)COC1` [Compound 92, 5-chloro-1′-(2-{4-[(3-methyloxetan-3-yl)sulfonyl]phenoxy}ethyl)-1,2-dihydrospiro[indole-3,4′-piperidin]-2-one], the AC50 is 761 nM.

For the compound `CC1(S(=O)(=O)c2ccc(OCCN3CCC4(CC3)C(=O)Nc3ccc(C#N)cc34)cc2)COC1` [Compound 93, 1′-(2-{4-[(3-methyloxetan-3-yl)sulfonyl]phenoxy}ethyl)-2-oxo-1,2-dihydrospiro[indole-3,4′-piperidine]-5-carbonitrile], the half-maximal activity concentration (AC50) came to 951 nM. The result for `CS(=O)(=O)N1CCc2cc(OCCN3CCC4(CC3)C(=O)Nc3ccc(Cl)cc34)ccc2C1` [Compound 94, 5-chloro-1′-{2-[(2-methanesulfonyl-1,2,3,4-tetrahydroisoquinolin-6-yl)oxy]ethyl}-1,2-dihydrospiro[indole-3,4′-piperidin]-2-one] reads 794 nM; that for `CN1C(=O)CCc2cc(OCCN3CCC4(CC3)C(=O)Nc3ccc(C#N)cc34)ccc21` [Compound 95, 1′-{2-[(1-methyl-2-oxo-1,2,3,4-tetrahydroquinolin-6-yl)oxy]ethyl}-2-oxo-1,2-dihydrospiro[indole-3,4′-piperidine]-5-carbonitrile], 655 nM. The result for `CC(C)N1C(=O)CCc2cc(OCCN3CCC4(CC3)C(=O)Nc3ccc(C#N)cc34)ccc21` [Compound 96, 2-oxo-1′-(2-{[2-oxo-1-(propan-2-yl)-1,2,3,4-tetrahydroquinolin-6-yl]oxy}ethyl)-1,2-dihydrospiro[indole-3,4′-piperidine]-5-carbonitrile] reads 552 nM; that for `CC(C)N1C(=O)CCc2cc(OCCN3CCC4(CC3)C(=O)Nc3ccc(Cl)cc34)ccc21` [Compound 97, 5-chloro-1′-(2-{[2-oxo-1-(propan-2-yl)-1,2,3,4-tetrahydroquinolin-6-yl]oxy}ethyl)-1,2-dihydrospiro[indole-3,4′-piperidin]-2-one], 823 nM. Take `CS(=O)(=O)N(CCO)c1ccc(OCCN2CCC3(CC2)C(=O)Nc2ccc(Cl)cc23)cc1` [Compound 98, N-[4-(2-{5-chloro-2-oxo-1,2-dihydrospiro[indole-3,4′-piperidin]-1′-yl}ethoxy)phenyl]-N-(2-hydroxyethyl)methanesulfonamide]: the AC50 is 600 nM.
